Assay type in all cases: in vivo
One assay has as its system mice. In words: Light and dark box test in mice. Conditions: 2.0 mg/kg oral, 60 min after dose, 5 min test; n = 10, x ± SD. The procedure:
The positive control drug was diazepam. 60 minutes after oral administration, the light and dark box test was implemented. Each mouse is tested for 5 minutes, and each residence time in the light box and the number of shuttles between the light and dark boxes are recorded.

Assay [1] deals with Kunming mice. In words: Mouse swimming test. Conditions: 50 mg/kg/d oral, 14 days, 1 h after last dose; n=10, x ± SD. Here is the method:
Kunming mice (male, 18-20 g) were randomly divided into 12 groups, each with 10 rats. Each group was given the corresponding dose of extract as shown in Table 4 and normal saline was used as control. The positive control group was venlafaxine. Continuous administered for 14 days, one time per day. One hour after the last oral administration, the mice were placed into a glass tank of 10×20 cm and water depth of 10 cm (water temperature 25° C.) for a swimming test. The swimming duration was 6 minutes, the time to stop motion within 5 minutes was recorded.

Assay [2] relates to Kunming mice. In words: Mouse tail hanging test. Conditions: 50 mg/kg/d oral, 14 days, 1 h after last dose; n=10, x ± SD. Here is the method: Kunming mice (male, 18-20 g) were randomly divided into 14 groups, each with 10 rats. […] The positive control group was venlafaxine. Continuous administered for 14 days, one time per day. One hour after the last oral administration, the mouse tail hanging test was carried out. The tails of the mice were glued on a wooden bar 50 cm above the table top to make them stand upside down, and the mouse sight was isolated using plates around. The mice would struggle to overcome the abnormal posture, but appear immobile after a period of activity, showing state of despair Duration was 6 minutes, the time of immobility within 6 minutes was recorded.

The next assay relates to Wistar rats. In words: Rat learned helplessness test (conditional avoidance). The procedure: Wistar rats were selected and randomly grouped into 10 rats in each group. The learned helplessness test model was used in which the corresponding dose of extracts shown as in Table 5 were administered orally by gavage. The positive control was venlafaxine. Continuous administered for 7 days, one time per day. 24 h after the last oral administration, a conditional avoidance test is implemented.

Take `CN1C(=O)CN=C(c2ccccc2)c2cc(Cl)ccc21` [Diazepam, diazepam]: in the assay on mice, the Number of shuttles is listed as 14.23 ± 1.06 and the “Time (residence time in the light box)” value was 121.23 ± 8.12.

Regarding `COc1ccc(C(CN(C)C)C2(O)CCCCC2)cc1` (stereo not drawn) [Venlafaxine, venlafaxine], in the assay on Kunming mice [1], the “Stop motion within 5 min” value stood at 75.8 ± 19.4 s. For the same molecule, the “Immobility time within 6 min” value in the assay on Kunming mice [2] came out at 60.9 ± 38.5 s. The molecule further came in with an Escape latency in the assay on Wistar rats (30 mg/kg/d oral gavage, 7 days, 24 h after last dose, u test n = 10, x ± SD) of 14.15 ± 12.32 s. In the assay with Wistar rats (doses of 10, 5, 2.5 mg/kg/d, compared with the model control group P<0.01), the “escape latency of the rats, effect in words” value was “significantly shortened the escape latency”.
